Measurements published in US6884906B2, “Menthyl half acid ester derivatives, processes for preparing same, and uses thereof for their cooling/refreshing effect in consumable materials” (International Flavors & Fragrances Inc., priority 2003, dated 2005).

Key:
Assay type in all cases: in vivo
oral cavity [1] = assay: Sensory evaluation in cherry-flavored hard candy; details: 0.2 grams added to recipe yielding 200 grams of hard candy; versus control candy
Description: The following formulation was prepared: […]
The above formulation was added to a stainless steel pot. With constant mixing, the formulation temperature was raised to 295° F. The pot was then removed from the heat, and 0.3 grams of cherry flavor containing the ingredients in equal amounts benzaldehyde, tolyl aldehyde, ethyl acetate, maltol, Davana oil and methyl heptinyl carbonate and 1.2 grams of citric acid was added. The resulting liquid candy was then deposited into molds, and the molds containing the liquid candy were cooled to room temperature, yielding 200 grams of finished hard candy. […] A second candy sample was prepared using the above recipe modified by the addition of 0.2 grams of menthyl succinamide prepared according to the procedure of Example I (A).

oral cavity [2] = assay: Flavor and sensory characteristics at use level of 25 ppm in water
oral cavity [3] = assay: Sensory evaluation in fruity citrus chewing gum; details: 1 part by weight added to gum of 100 parts chicle, 4 parts flavor, 300 parts sucrose, 100 parts corn syrup; versus control gum
Description: 100 parts by weight of chicle were mixed with 4 parts by weight of a fruity citrus gum flavor which was a blend of lemon oil, ethyl butyrate, ethyl acetate, benzaldehyde, citral and alpha ionone in equal portions. To the resulting mixture, 300 parts by weight of sucrose and 100 parts by weight of corn syrup were added. Mixing was effected in a ribbon blender with jacketed sidewalls, manufactured by Baker Perkins Co. The resultant chewing gum blend was then manufactured into strips 1 inch in width and 0.1 inches in thickness. These strips were cut into lengths of 3 inches each. […] A second gum sample was prepared using the above recipe with the addition of 1 part by weight of menthyl N,N-dimethyl succinamide, prepared according to Example I(C).

Row | Molecule | cooling effect in hard candy (oral cavity [1]) | Cooling Duration (oral cavity [2]) [min] | Onset Time (oral cavity [2]) [s] | cooling effect in chewing gum (oral cavity [3])
1 | CC(C)[C@@H]1CC[C@@H](C)C[C@H]1OC(=O)CCC(N)=O [Example I(A), Butanoic acid, 4-amino-4-oxo, (5-methyl-2-(1-methylethyl)cyclohexyl)ester, (1R-(1α,2β,5α))-] | moderately strong and substantive cooling effect | 7.5 | 8 to 25 | 
2 | CNC(=O)CCC(=O)O[C@@H]1C[C@H](C)CC[C@H]1C(C)C [Example I(B), Butanoic acid, 4-methylamino-4-oxo, (5-methyl-2-(1-methylethyl)cyclohexyl)ester, (1R-(1α,2β,5α))] |  | 7 | 15 to 25 | 
3 | CC(C)[C@@H]1CC[C@@H](C)C[C@H]1OC(=O)CCC(=O)N(C)C [Example I(C), Butanoic acid, 4-dimethylamino-4-oxo, (5-methyl-2-(1-methylethyl)cyclohexyl)ester, (1R-(1α,2β,5α))-] |  | 11.25 | 25 | pleasant and substantive cooling effect on the tongue and roof of the mouth
4 | CC(C)[C@@H]1CC[C@@H](C)C[C@H]1OC(=O)CCC(=O)NCCO [Example I(E), Butanoic acid, 4-(2-hydroxyethyl)amino-4-oxo, (5-methyl-2-(1-methylethyl)cyclohexyl) ester, (1R-(1α,2β,5α))-] |  | 15 | 11 | 
5 | CC(C)[C@@H]1CC[C@@H](C)C[C@H]1OC(=O)CCCCC(=O)O [Example I(I), Hexanedioic acid, mono(5-methyl-2-(1-methylethyl)cyclohexyl) ester, (1R-(1α,2β,5α))-] |  | 10.5 | 34 | 
6 | CCNC(=O)CCC(=O)O[C@@H]1C[C@H](C)CC[C@H]1C(C)C [I(D), Butanoic acid, 4-ethylamino-4-oxo, (5-methyl-2-(1-methylethyl)cyclohexyl)ester, (1R-(1α,2β,5α))-] |  | 7 | 35 | 
7 | Pentanoic acid, 4-methylamino-4-oxo, (5-methyl-2-(1-methylethyl)cyclohexyl) ester, (1R-(1α,2β,5α))- [Example I(G)] |  | 5 | 20 | 
